Laboratory results from US6495591B1, “Fungal efflux pump inhibitors” (Essential Therapeutics, Inc., priority 1997, dated 2002).

Columns and labels:
[1] = biological target: pCgCDR (ABC) efflux pump in S. cerevisiae YEM-39 (Candida glabrata, UniProt Q6FK23); experiment: cell-based; format: cell-based, C. glabrata; details: YEM-39 pCgCDR; fluconazole fixed at FLUhalf 4
[2] = tested on: C. krusei YEM-52 (ATCC 90878), wild type; experiment: Minimal concentration to reduce fluconazole MIC sixteen-fold (Table 7); format: cell-based; details: YEM-52, wild type
[3] = tested on: YEM 51 C. glabrata wt; experiment: FEPI MIC with/without 1/8 fluconazole MIC at 24 hrs (Table 11); format: cell-based; details: YEM 51, 24 hrs, 80% inhibition
[4] = tested on: YEM 24 C. albicans ΔCDR1, ΔCDR2; experiment: microbe, parasite or virus in culture; format: cell-based; details: YEM 24, 24 hrs, 80% inhibition
[5] = tested on: YEM 17 C. glabrata, CgCDR up; format: cell-based; details: 24 hrs, 80% inhibition
[6] = tested on: C. albicans YEM-15 (CDR1 & CDR2 overexpressor); format: cell-based
[7] = tested on: pCgBEN (MF) efflux pump in S. cerevisiae YEM-40; format: cell-based, C. glabrata
[8] = biological target: pCDR2 (ABC) efflux pump in S. cerevisiae YEM-37 (Candida albicans, UniProt P78595); experiment: cell-based; format: cell-based, C. albicans; details: YEM-37 pCDR2; fluconazole fixed at FLUhalf 1
[9] = biological target: pFLU (MF) efflux pump in S. cerevisiae YEM-38 (Candida albicans, UniProt G1UB37); experiment: cell-based; format: cell-based, C. albicans; details: YEM-38 pFLU; fluconazole fixed at FLUhalf 2
pFLU (MF) efflux pump in S. cerevisiae YEM-38, sequence (G1UB37 whole entry): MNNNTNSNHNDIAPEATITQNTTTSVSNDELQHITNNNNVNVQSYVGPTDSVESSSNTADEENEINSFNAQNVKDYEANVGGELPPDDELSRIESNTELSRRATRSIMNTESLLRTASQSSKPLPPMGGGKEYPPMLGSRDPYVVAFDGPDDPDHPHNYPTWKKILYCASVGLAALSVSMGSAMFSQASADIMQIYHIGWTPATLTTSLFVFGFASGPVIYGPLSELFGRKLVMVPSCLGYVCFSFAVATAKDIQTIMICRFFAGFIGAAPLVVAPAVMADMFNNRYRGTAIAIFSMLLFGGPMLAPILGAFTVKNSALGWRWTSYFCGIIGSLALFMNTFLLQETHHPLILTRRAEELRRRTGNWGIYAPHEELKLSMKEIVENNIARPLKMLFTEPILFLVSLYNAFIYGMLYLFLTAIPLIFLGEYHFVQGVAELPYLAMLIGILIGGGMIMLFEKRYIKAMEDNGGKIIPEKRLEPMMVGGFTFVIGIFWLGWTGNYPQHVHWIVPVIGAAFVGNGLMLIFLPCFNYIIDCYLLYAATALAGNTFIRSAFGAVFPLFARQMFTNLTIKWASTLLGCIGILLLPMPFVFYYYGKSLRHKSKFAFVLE

[10] = tested on: YEM 15 C. albicans, CDR1CDR2 up; experiment: microbe, parasite or virus in culture; format: cell-based; details: YEM 15, 24 hrs, 80% inhibition
[11] = tested on: YEM 30 C. albicans wt; experiment: FEPI MIC with/without 1/8 fluconazole MIC at 24 hrs (Table 11); format: cell-based; details: YEM 30, 24 hrs, 80% inhibition
[12] = tested on: YEM 13 C. albicans BEN up; experiment: microbe, parasite or virus in culture; format: cell-based; details: YEM 13, 24 hrs, 80% inhibition
[13] = tested on: YEM 27 C. albicans ΔCDR1ΔCDR2 ΔBENΔFLU1; experiment: microbe, parasite or virus in culture; format: cell-based; details: YEM 27, 24 hrs, 80% inhibition
[14] = tested on: C. glabrata YEM-19 (CgCDR overexpressor); format: cell-based
[15] = biological target: pCDRI (ABC) efflux pump in S. cerevisiae YEM-1 (Candida albicans, UniProt P43071); experiment: cell-based; format: cell-based, C. albicans; details: YEM-1 pCDRI; fluconazole fixed at FLUhalf 5.6
pCDRI (ABC) efflux pump in S. cerevisiae YEM-1, sequence (P43071 whole entry): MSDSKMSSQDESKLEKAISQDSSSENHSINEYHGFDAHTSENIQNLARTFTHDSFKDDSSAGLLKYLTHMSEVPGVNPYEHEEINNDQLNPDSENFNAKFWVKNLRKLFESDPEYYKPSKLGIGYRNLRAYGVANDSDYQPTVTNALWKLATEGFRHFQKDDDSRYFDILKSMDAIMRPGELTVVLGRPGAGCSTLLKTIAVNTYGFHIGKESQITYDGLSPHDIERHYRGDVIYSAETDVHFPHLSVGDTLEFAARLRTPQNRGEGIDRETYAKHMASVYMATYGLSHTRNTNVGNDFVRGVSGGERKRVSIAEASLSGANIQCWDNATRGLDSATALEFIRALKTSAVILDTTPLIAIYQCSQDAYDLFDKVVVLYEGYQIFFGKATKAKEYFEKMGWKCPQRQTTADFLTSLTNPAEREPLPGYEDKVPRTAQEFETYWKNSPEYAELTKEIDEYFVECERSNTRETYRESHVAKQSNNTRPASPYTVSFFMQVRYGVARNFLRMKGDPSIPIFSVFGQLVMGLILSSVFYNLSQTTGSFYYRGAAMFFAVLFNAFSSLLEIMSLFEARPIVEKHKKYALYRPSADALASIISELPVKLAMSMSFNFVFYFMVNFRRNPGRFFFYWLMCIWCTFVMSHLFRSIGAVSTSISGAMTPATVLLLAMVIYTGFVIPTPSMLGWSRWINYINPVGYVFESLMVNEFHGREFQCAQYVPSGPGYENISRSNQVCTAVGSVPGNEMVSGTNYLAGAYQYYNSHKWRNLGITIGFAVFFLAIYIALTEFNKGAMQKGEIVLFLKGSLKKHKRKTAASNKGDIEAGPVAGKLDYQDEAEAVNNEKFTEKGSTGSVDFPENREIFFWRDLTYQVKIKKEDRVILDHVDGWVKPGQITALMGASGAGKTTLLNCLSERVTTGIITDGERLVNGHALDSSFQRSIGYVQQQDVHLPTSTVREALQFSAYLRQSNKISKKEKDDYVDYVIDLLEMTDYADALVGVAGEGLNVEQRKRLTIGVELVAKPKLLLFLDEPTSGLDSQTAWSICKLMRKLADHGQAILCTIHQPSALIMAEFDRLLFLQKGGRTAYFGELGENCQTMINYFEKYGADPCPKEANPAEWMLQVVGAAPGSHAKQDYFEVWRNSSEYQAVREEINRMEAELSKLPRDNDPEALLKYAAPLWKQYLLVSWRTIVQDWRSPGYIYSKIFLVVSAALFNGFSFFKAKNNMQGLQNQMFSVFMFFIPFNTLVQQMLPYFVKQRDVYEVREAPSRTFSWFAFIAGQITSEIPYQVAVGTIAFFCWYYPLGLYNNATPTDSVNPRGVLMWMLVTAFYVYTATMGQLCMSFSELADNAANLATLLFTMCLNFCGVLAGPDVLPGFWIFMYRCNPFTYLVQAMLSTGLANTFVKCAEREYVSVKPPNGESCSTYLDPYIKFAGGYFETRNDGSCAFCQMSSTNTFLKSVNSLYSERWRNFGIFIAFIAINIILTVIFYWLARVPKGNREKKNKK

[16] = tested on: C. albicans YEM-13 (BEN); format: cell-based
[17] = tested on: YEM 53 C. krusei; experiment: FEPI MIC with/without 1/8 fluconazole MIC at 24 hrs (Table 11); format: cell-based; details: YEM 53, 24 hrs, 80% inhibition
[18] = tested on: C. krusei YEM-52 (ATCC 90878), wild type; experiment: Broth dilution MIC, fluconazole with/without milbemycin oxime (Table 6); format: cell-based; details: YEM-52; milbemycin oxime 2.5 μg/ml
[19] = tested on: Aspergillus fumigatus; experiment: FEPI MICs in combination with 1/4 the azole's MIC (Table 12); format: cell-based; parameters: FEPI MIC (alone): unit not given here
Description: The combinations were tested against a series of Candida strain with known expression of efflux pumps or with complete deletion of all known pumps and Aspergillus fumigatus. Results are reported as minimum inhibitory concentration (MIC) of […] in the presence or absence of […]. A total of 27 distinct milbemycins were studied.

[20] = biological target: pBEN (MF) efflux pump in S. cerevisiae YEM-2 (Candida albicans, UniProt P28873); experiment: cell-based; format: cell-based, C. albicans; details: YEM-2 pBEN; fluconazole fixed at FLUhalf 5.6
pBEN (MF) efflux pump in S. cerevisiae YEM-2, sequence (P28873 whole entry): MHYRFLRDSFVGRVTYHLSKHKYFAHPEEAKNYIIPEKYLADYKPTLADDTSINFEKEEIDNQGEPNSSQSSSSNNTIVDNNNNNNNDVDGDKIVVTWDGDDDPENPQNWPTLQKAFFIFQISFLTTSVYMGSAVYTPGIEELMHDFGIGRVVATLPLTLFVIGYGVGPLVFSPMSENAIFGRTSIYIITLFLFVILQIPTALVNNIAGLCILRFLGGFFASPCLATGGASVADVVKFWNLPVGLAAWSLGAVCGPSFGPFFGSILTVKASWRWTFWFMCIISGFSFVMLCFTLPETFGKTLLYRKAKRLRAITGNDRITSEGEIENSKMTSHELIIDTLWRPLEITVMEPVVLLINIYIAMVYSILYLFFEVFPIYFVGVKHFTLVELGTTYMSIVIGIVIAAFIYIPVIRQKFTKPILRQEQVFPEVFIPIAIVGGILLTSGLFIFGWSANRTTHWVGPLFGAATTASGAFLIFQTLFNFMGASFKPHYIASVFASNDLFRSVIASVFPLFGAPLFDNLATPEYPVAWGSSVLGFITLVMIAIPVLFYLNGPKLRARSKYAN

pCgCDR (ABC) efflux pump in S. cerevisiae YEM-39, sequence (Q6FK23 whole entry): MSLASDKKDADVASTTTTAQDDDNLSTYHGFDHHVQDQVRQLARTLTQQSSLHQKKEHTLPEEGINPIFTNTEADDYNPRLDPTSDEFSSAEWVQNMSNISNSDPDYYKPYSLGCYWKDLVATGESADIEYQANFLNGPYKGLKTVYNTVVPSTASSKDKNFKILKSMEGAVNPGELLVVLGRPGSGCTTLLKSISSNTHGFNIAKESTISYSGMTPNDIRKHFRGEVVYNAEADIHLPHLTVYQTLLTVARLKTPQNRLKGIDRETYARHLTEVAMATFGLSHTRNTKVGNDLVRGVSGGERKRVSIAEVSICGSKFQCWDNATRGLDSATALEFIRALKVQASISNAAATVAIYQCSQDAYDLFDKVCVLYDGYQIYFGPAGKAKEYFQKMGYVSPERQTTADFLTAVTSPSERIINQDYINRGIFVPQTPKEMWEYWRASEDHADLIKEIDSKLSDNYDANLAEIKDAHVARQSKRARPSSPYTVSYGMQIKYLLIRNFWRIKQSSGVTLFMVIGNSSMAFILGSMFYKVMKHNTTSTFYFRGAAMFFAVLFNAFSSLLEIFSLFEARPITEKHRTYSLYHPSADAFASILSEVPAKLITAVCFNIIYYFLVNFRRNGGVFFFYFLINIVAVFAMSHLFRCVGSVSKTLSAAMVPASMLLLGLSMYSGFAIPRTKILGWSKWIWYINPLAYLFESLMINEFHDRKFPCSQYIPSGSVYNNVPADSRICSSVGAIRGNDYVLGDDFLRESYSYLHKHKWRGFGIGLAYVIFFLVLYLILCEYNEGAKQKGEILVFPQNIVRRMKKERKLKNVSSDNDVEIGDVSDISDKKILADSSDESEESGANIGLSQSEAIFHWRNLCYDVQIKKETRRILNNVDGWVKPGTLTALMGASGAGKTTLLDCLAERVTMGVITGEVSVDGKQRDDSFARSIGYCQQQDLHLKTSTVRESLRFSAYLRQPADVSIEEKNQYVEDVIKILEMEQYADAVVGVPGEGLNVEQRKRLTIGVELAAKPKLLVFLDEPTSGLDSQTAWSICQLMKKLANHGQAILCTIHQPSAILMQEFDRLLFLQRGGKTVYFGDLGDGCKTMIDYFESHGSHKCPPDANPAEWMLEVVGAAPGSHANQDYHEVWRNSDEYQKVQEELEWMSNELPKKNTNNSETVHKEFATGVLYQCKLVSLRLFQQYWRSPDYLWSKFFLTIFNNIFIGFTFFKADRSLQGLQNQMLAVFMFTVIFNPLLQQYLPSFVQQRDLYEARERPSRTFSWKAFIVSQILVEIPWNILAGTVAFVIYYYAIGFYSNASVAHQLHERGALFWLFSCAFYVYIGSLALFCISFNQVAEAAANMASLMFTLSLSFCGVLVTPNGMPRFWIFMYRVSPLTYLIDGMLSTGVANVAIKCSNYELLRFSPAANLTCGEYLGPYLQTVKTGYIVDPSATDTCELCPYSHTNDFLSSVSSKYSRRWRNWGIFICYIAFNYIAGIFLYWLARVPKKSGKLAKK

With Milbemycin oxime [Compound 2] the “FEPIhalf (concentration needed to reduce activity of efflux pump by 50%)” value [1] was 64, the “Minimal concentration required to reduce the MIC of fluconazole by sixteen-fold” value [2] was 1.25 µg/mL and the MIC of compound in the presence of fluconazole (+) ([3]; 1/8 × MIC of fluconazole) was 16 µg/mL. The MIC of compound in the absence of fluconazole (−) [3] was > 64 µg/mL, the MIC of compound in the presence of fluconazole (+) ([4]; 1/8 × MIC of fluconazole) was > 64 µg/mL and the MIC of compound in the absence of fluconazole (−) [4] was > 64 µg/mL. For the same substance, the MIC of compound in the presence of fluconazole (+) ([5]; 1/8 × MIC of fluconazole) was 4 µg/mL, the MIC of compound in the absence of fluconazole (−) [5] was > 64 µg/mL and the “Minimal concentration required to reduce the MIC of fluconazole by sixteen-fold” value [6] was <0.07 µg/mL. For the same substance, the “FEPIhalf (concentration needed to reduce activity of efflux pump by 50%)” value [7] was >64, the “FEPIhalf (concentration needed to reduce activity of efflux pump by 50%)” value [8] was 0.125 and the “FEPIhalf (concentration needed to reduce activity of efflux pump by 50%)” value [9] was >64. The “MIC of compound in the presence of fluconazole (+)” value ([10]; 1/8 × MIC of fluconazole) was “≦0.03”, the MIC of compound in the absence of fluconazole (−) [10] was > 64 µg/mL and the “MIC of compound in the presence of fluconazole (+)” value ([11]; 1/8 × MIC of fluconazole) was “≦0.03”. The MIC of compound in the absence of fluconazole (−) [11] was > 64 µg/mL, the MIC of compound in the presence of fluconazole (+) ([12]; 1/8 × MIC of fluconazole) was > 64 µg/mL and the MIC of compound in the absence of fluconazole (−) [12] was > 64 µg/mL. For the same substance, the MIC of compound in the presence of fluconazole (+) ([13]; 1/8 × MIC of fluconazole) was 64 µg/mL, the MIC of compound in the absence of fluconazole (−) [13] was > 64 µg/mL and the “Minimal concentration required to reduce the MIC of fluconazole by sixteen-fold” value [14] was >80 µg/mL. The “FEPIhalf (concentration needed to reduce activity of efflux pump by 50%)” value [15] was <0.06, the “Minimal concentration required to reduce the MIC of fluconazole by sixteen-fold” value [16] was 80 µg/mL and the MIC of compound in the presence of fluconazole (+) ([17]; 1/8 × MIC of fluconazole) was 2 µg/mL. The MIC of compound in the absence of fluconazole (−) [17] was > 64 µg/mL, the “MIC of fluconazole, Flu + McOxm (2.5 μg/ml)” value [18] was 2 µg/mL and the “FEPI MIC with fluconazole, 60% Inh” value ([19]; fluconazole 32 μg/ml (1/4 MIC), 60% inhibition) was 2. The “FEPI MIC with fluconazole, 80% Inh” value ([19]; fluconazole 32 μg/ml (1/4 MIC), 80% inhibition) was >64, the “FEPI MIC with itraconazole, 60% Inh” value ([19]; itraconazole 0.063 μg/ml (1/4 MIC), 60% inhibition) was >64 and the “FEPI MIC with itraconazole, 80% Inh” value ([19]; itraconazole 0.063 μg/ml (1/4 MIC), 80% inhibition) was >64. The “FEPI MIC with ketoconazole, 60% Inh” value ([19]; ketoconazole 4 μg/ml (1/4 MIC), 60% inhibition) was 0.5, the “FEPI MIC with ketoconazole, 80% Inh” value ([19]; ketoconazole 4 μg/ml (1/4 MIC), 80% inhibition) was 0.5 and the “FEPI MIC (alone)” value ([19]; no azole, 80% inhibition, 35° C., CM Broth) was >64. For the same substance, the “FEPIhalf (concentration needed to reduce activity of efflux pump by 50%)” value [20] was >64.
